How the values were obtained:
[1] = system: Hepatitis B virus replication; test: Alisporivir treatment of HepG2215 cells silenced for CypA, C or D by siRNA; HBV-DNA and HBsAg levels; format: cell-based, Hepatitis B virus (human hepatoma cell line); conditions: greater effects in CypC or CypD silenced cells than CypA silenced cells (p<0.001)
Description: To assess the role of cyclophilin A in HBV replication, HepG2215 cells were transfected with siRNA for cyclophilin A and incubated with medium only or with the addition of NIM811 or DEB025. Similarly, the role of Cyclophilin B, C and D in HBV and HDV replication will be evaluated by siRNA specific for CypB, C and D.
Stably transfected (HepG2215) and transiently transfected (HUH-7) cells, producing full HBV virions and HBsAg particles, were treated with a range of Alisporivir concentrations (0.25, 1.0 5.0 or 20 micrograms/ml) alone, telbivudine alone, or combinations of Alisporivir and telbivudine. To determine the involvement of individual cyclophilins, HepG2215 cells were transfected with siRNA-specific for cyclophilin (Cyp) A, C or D and additionally treated with Alisporivir. […] The kinetics of antiviral activity was assessed by quantitation of intracellular and secreted HBV-DNA (real-time qPCR) and HBsAg levels (ELISA).
HepG2215 cells were seeded with the siRNAs (Dharmacon Inc., Lafayette, Colo.) at 50% density and incubated for 48 h. […] Total DNA was extracted from the samples and HBV DNA was quantitated by real time PCR, as above. […] The RNA was reverse transcribed with Quantitect Reverse transcription kit (Qiagen) and cDNA quantitated with SYBR Green Quantitect kit using Quantitect primers (Qiagen, Sussex, UK).

[2] = system: Hepatitis B virus replication; test: Secreted HBV DNA quantitation in cell culture supernatants by real-time PCR; format: cell-based, Hepatitis B virus (human hepatoma cell lines)
Description: (§1) HepG2215 cell line, derived from HepG2 cells, was stably transfected with HBV DNA and supported full HBV replication with production of infectious virions and HBsAg. HepG2215 cells were cultured in 12-well plates, as described previously (7, 8), for 7 days prior to adding the cyclophilin inhibitors.
(§2) The cells were treated with 0.25, 1.0 or 5.0 micrograms/mL of NIM811 or DEB025; cells and supernatants were harvested separately at baseline, 6, 24, 48 and 72 hours after the addition of NIM811 or DEB025, respectively.
(§3) HuH-7 cells were transfected with a plasmid containing a pBlueScript KS(+) vector with a 1.5 HBV DNA genomes of subtype adw2 was used. Subconfluent HuH-7 cells were transfected with 5 μg of plasmid DNA per 60-mm-diameter dish using 10 μl of Superfect reagent (Qiagen, Crawley, UK). The supernatants were replaced 18 h posttransfection with medium supplemented with 10% FCS, and the cells were cultured for 3 days, as described (7).
(§4) Stably transfected (HepG2215) and transiently transfected (HUH-7) cells, producing full HBV virions and HBsAg particles, were treated with a range of Alisporivir concentrations (0.25, 1.0 5.0 or 20 micrograms/ml) alone, telbivudine alone, or combinations of Alisporivir and telbivudine. To determine the involvement of individual cyclophilins, HepG2215 cells were transfected with siRNA-specific for cyclophilin (Cyp) A, C or D and additionally treated with Alisporivir. Cytoplasmic extracts and supernatants were harvested at baseline; 24, 48 and 72 hours post-treatment. The kinetics of antiviral activity was assessed by quantitation of intracellular and secreted HBV-DNA (real-time qPCR) and HBsAg levels (ELISA).
(§5) HBV replication was assessed by quantitation of both viral nucleocapsid-associated HBV DNA (cytoplasmic) and the HBV DNA levels in cell culture supernatants, as described previously (8,9). Nucleocapsid HBV DNA was extracted and quantitated by TaqMan real-time PCR (ABI Prism 7700). Intracellular HBV DNA was normalized with b-actin as a house-keeping gene. Secreted HBV DNA was extracted with QIAmp DNA minikit (Qiagen, Sussex, UK) and also quantitated by TaqMan. The sensitivity of HBV DNA quantitation was verified in each run with serial dilutions of HBV DNA plasmid, as well as the EuroHep HBV DNA standard, as described (9,10).

[3] = system: Hepatitis B virus replication; test: Intracellular (cytoplasmic, nucleocapsid-associated) HBV DNA quantitation by real-time PCR in HBV-transfected hepatoma cells; format: cell-based, Hepatitis B virus (human hepatoma cell lines); conditions: for reduction of cellular HBV DNA: FIG. 6
Description: as §1, §2, §3, §4, §5

Hepatitis B virus = conditions: at one year, cited from earlier work; for rate of undetectable HBV DNA: HBeAg-negative patients with CHB; for virological treatment response rate (undetectable serum HBV DNA): HBeAg-positive patients

| Compound | HBV-DNA levels in Cyp-silenced cells [1] | HBsAg levels in Cyp-silenced cells [1] | reduction of secreted HBV-DNA ([2]; HepG2215 and HUH-7 cells, dose-dependent (0.25-20 micrograms/ml), compared with untreated controls, p<0.001) [%] | effect in reducing HBV DNA levels in cell culture supernatants compared with NIM811 ([2]; HepG2215 cells, 5.0 micrograms/mL, FIG. 2) | reduction of secreted HBV DNA ([2]; HepG2215 cells, FIG. 5) | reduction of secreted HBV DNA ([2]; transiently transfected Huh7 or stably transfected HepG2215 cells, FIG. 3) | reduction of intracellular HBV-DNA ([3]; HepG2215 and HUH-7 cells, dose-dependent (0.25-20 micrograms/ml), compared with untreated controls, p=0.004) [%] | reduction of intracellular HBV DNA compared with NIM811 ([3]; HepG2215 cells, 5 micrograms/mL, 72 h) | reduction of intracellular HBV DNA levels ([3]; HepG2215 cells, 5 micrograms/mL, 72 hours, FIG. 1) [fold] | reduction of cellular HBV DNA ([3]; HepG2215 cells) | reduction of cytoplasmic HBV DNA ([3]; Huh7 and HepG2215 cells, FIG. 4) | rate of undetectable HBV DNA (Hepatitis B virus) [%] | virological treatment response rate (undetectable serum HBV DNA) (Hepatitis B virus) [%] |
| --- | --- | --- | --- | --- | --- | --- | --- | --- | --- | --- | --- | --- | --- |
| C/C=C/C[C@@H](C)[C@@H](O)[C@H]1C(=O)N[C@@H](CC)C(=O)N(C)[C@H](C)C(=O)N(CC)[C@@H](C(C)C)C(=O)N[C@@H](C(C)C)C(=O)N(C)[C@@H](CC(C)C)C(=O)N[C@@H](C)C(=O)N[C@H](C)C(=O)N(C)[C@@H](CC(C)C)C(=O)N(C)[C@@H](CC(C)C)C(=O)N(C)[C@@H](C(C)C)C(=O)N1C [Alisporivir] | further reduced | further reduced | 63 | greater effect | reductions | dose-dependent reduction | 70 | greater than the reduction observed with NIM811 | 10 | reductions | dose dependent reductions |  |  |
| C=C1[C@H](CO)[C@@H](O)C[C@@H]1n1cnc2c(=O)[nH]c(N)nc21 [entecavir] |  |  |  |  |  |  |  |  |  |  |  | 90 | 67 |
| Cc1cn([C@@H]2C[C@@H](O)[C@H](CO)O2)c(=O)[nH]c1=O [telbivudine, reference compound] |  |  |  |  | reductions |  |  |  |  | reductions |  | 88 | 60 |
| C[C@H](Cn1cnc2c(N)ncnc21)OCP(=O)(O)O [tenofovir] |  |  |  |  |  |  |  |  |  |  |  | 91 | 74 |

— patent publication US20160101146A1, “TREATMENT FOR INFECTION WITH HEPATITIS B VIRUS ALONE OR IN COMBINATION WITH HEPATITIS DELTA VIRUS AND ASSOCIATED LIVER DISEASES” (NOVARTIS AG, priority 2011, published 2016)
